Assay results taken from US8835421B2, “Benzimidazole linked pyrrolo[2,1-c[1,4] benzodiazepine hybrids as potential antitumour agents and process for the preparation thereof” (Council of Scientific and Industrial Research, priority 2008, dated 2014).

Experiments:
[1] = test system: calf thymus DNA (CT-DNA); experiment: Thermal denaturation studies with duplex-form calf thymus DNA; type: binding; conditions: [PBD]:[DNA] 1:5, CT-DNA 100 μM, ligand 20 μM, sodium phosphate buffer pH 7.00; for ΔTm after incubation at 37° C. for 0 h: 0 h incubation at 37° C.; for ΔTm after incubation at 37° C. for 18 h: 18 h incubation at 37° C.
Experimental: Compounds have been subjected to thermal denaturation studies with duplex-form calf thymus DNA (CT-DNA) using an modification of a reported procedure (Newman, M. S. Carcinog-compr. Surv. 1976, 1, 203; (b) Hecht, S. S.; Loy, M.; Hoffman, Carcinog-compr. Surv. 1976, 1, 325). Working solutions in aqueous buffer (10 mM NaH2PO4/Na2HPO4, 1 mM Na2EDTA, pH 7.00+0.01) containing CT-DNA (100 μm in phosphate) and the PBD (20 μm) have been prepared by addition of concentrated PBD solutions in DMSO to obtain a fixed [PBD]/[DNA] molar ratio of 1:5. The DNA-PBD solutions have been incubated at 37° C. for 0 and 18 h prior to analysis. Samples have been, monitored at 260 nm using a Beckman DU-800 spectrophotometer fitted with high performance temperature controller, and heated at 1° C. min^−1 in the 40-110° C. range. DNA helix→coil transition temperatures (Tm) have been obtained from the maxima in the d(A260)/d T derivative plots. Drug-induced alterations in DNA melting behavior are given by: ΔTm=Tm(DNA+PBD)−Tm(DNA alone), where the Tm value for the PBD-free CT-DNA is 69.1±0.01.
The DNA binding activity for these novel C8-linked benzimidazole-PBD hybrids has been examined by thermal denaturation studies using calf thymus (CT) DNA. […] The data for the compounds 8a-g, 11a-d and 14 is included in Table 1 for comparison.

[2] = test system: sixty human tumour cells; experiment: NCI in vitro anticancer screen (SRB, 48 h), mean graph midpoints over all cell lines; type: cell-based; conditions: 48 h continuous drug exposure, SRB assay; for Log10LC50 mean graph midpoint (MG_MID): 50% cell death; for Log10GI50 mean graph midpoint (MG_MID): 50% cell growth inhibition; for Log10TGI mean graph midpoint (MG_MID): total cell growth inhibition
Experimental: (§1) Anticancer activity: In vitro biological activity studies were carried out at the National Cancer Institute (USA).
(§2) The compounds were evaluated for in vitro anticancer activity against sixty human tumour cells derived from nine cancer types (leukemia, non-small-cell lung, colon, CNS, melanoma, ovarian, prostate, and breast cancer) as shown in Table 3. For each compound, dose response curves for each cell line were measured at a minimum of five concentrations at 10 fold dilutions. A protocol of 48 h continuous drug exposure was used and a sulforhodamine B (SRB) protein assay was used to estimate cell viability or growth. The concentration causing 50% cell growth inhibition (GI50), total cell growth inhibition (TGI 0% growth) and 50% cell death (LC50, −50% growth) compared with the control was calculated. The mean graph midpoint values of log10 TGI and log10 LC50 as well as log10 GI50 for 8c, 8e, 11a, 11c and 14 are listed in Table 2.

[3] = test system: Leukemia cancer cell lines; experiment: NCI in vitro anticancer screen (SRB, 48 h), leukemia; type: cell-based, human; conditions: average of six to nine cell lines; for GI50: Homo sapiens, read-out: Log10 GI50 (converted)
Experimental: as §1, §2
(§3) Each cancer type represents the average of six to nine different cancer cell lines.

[4] = test system: Non-small-cell-lung cancer cell lines; experiment: NCI in vitro anticancer screen (SRB, 48 h), non-small-cell lung; type: cell-based, human; conditions: average of six to nine cell lines; for GI50: Homo sapiens, read-out: Log10 GI50 (converted)
Experimental: as §1, §2, §3

[5] = test system: Colon cancer cell lines; experiment: NCI in vitro anticancer screen (SRB, 48 h), colon; type: cell-based, human; conditions: average of six to nine cell lines; for GI50: Homo sapiens, read-out: Log10 GI50 (converted)
Experimental: as §1, §2, §3

[6] = test system: CNS cancer cell lines; experiment: NCI in vitro anticancer screen (SRB, 48 h), CNS; type: cell-based, human; conditions: average of six to nine cell lines; for GI50: Homo sapiens, read-out: Log10 GI50 (converted)
Experimental: as §1, §2, §3

[7] = test system: Melanoma cancer cell lines; experiment: NCI in vitro anticancer screen (SRB, 48 h), melanoma; type: cell-based, human; conditions: average of six to nine cell lines; for GI50: Homo sapiens, read-out: Log10 GI50 (converted)
Experimental: as §1, §2, §3

[8] = test system: Ovarian cancer cell lines; experiment: NCI in vitro anticancer screen (SRB, 48 h), ovarian; type: cell-based, human; conditions: average of six to nine cell lines; for GI50: Homo sapiens, read-out: Log10 GI50 (converted)
Experimental: as §1, §2, §3

[9] = test system: Renal cancer cell lines; experiment: NCI in vitro anticancer screen (SRB, 48 h), renal; type: cell-based, human; conditions: average of six to nine cell lines; for GI50: Homo sapiens, read-out: Log10 GI50 (converted)
Experimental: as §1, §2, §3

[10] = test system: Prostate cancer cell lines; experiment: NCI in vitro anticancer screen (SRB, 48 h), prostate; type: cell-based, human; conditions: average of six to nine cell lines; for GI50: Homo sapiens, read-out: Log10 GI50 (converted)
Experimental: as §1, §2, §3

[11] = test system: Breast cancer cell lines; experiment: NCI in vitro anticancer screen (SRB, 48 h), breast; type: cell-based, human; conditions: average of six to nine cell lines; for GI50: Homo sapiens, read-out: Log10 GI50 (converted)
Experimental: as §1, §2, §3

Compound | ΔTm after incubation at 37° C. for 0 h [1] | ΔTm after incubation at 37° C. for 18 h [1] | Log10LC50 mean graph midpoint (MG_MID) [2] | Log10GI50 mean graph midpoint (MG_MID) [2] | Log10TGI mean graph midpoint (MG_MID) [2] | further results
COc1cc2c(cc1OCCCCCn1c(-c3cccs3)nc3ccccc31)N=C[C@@H]1CCCN1C2=O [Compound 8f, 7-Methoxy-8-{5-[2-(2-thienyl)-1H-benzimidazol-1-yl]pentyl}oxy-(11aS)-1,2,3,11a-tetrahydro-5H-pyrrolo[2,1-c][1,4]benzodiazepin-5-one] | 6.1 °C | 6.1 °C | – | – | – | –
COc1cc2c(cc1OCCCCn1c(-c3cccs3)nc3ccccc31)N=C[C@@H]1CCCN1C2=O [Compound 8e, 7-Methoxy-8-{4-[2-(2-thienyl)-1H-benzimidazol-1-yl]butyl}oxy-(11aS)-1,2,3,11a-tetrahydro-5H-pyrrolo[2,1-c][1,4]benzodiazepin-5-one] | 0.1 °C | 1.0 °C | −4.51 | −5.81 | −5.18 | GI50 [3]: 1000 nM; GI50 [4]: 2090 nM; GI50 [5]: 1950 nM; GI50 [6]: 1580 nM; GI50 [7]: 1580 nM; GI50 [8]: 2000 nM; GI50 [9]: 1580 nM; GI50 [10]: 1320 nM; GI50 [11]: 912 nM
COc1cc2c(cc1OCCCn1c(-c3ccco3)nc3ccccc31)N=C[C@@H]1CCCN1C2=O [Compound 8a, 7-Methoxy-8-{3-[2-(2-furyl)-1H-benzimidazol-1-yl]propyl}oxy-(11aS)-1,2,3,11a-tetrahydro-5H-pyrrolo[2,1-c][1,4]benzodiazepin-5-one] | 5.1 °C | 6.1 °C | – | – | – | –
COc1cc2c(cc1OCCCCCn1c(-c3ccco3)nc3ccccc31)N=C[C@@H]1CCCN1C2=O [Compound 8c, 7-Methoxy-8-{5-[2-(2-furyl)-1H-benzimidazol-1-yl]pentyl}oxy-(11aS)-1,2,3,11a-tetrahydro-5H-pyrrolo[2,1-c][1,4]benzodiazepin-5-one] | 5.1 °C | 7.0 °C | −4.60 | −7.91 | −6.89 | GI50 [3]: < 10 nM; GI50 [4]: < 12 nM; GI50 [5]: < 12 nM; GI50 [6]: < 10 nM; GI50 [7]: < 12 nM; GI50 [8]: < 10 nM; GI50 [9]: < 12 nM; GI50 [10]: < 22.9 nM; GI50 [11]: < 16.2 nM
COc1cc2c(cc1OCCCCCn1c(-c3ccc(OCc4ccccc4)cc3)nc3ccc(N4CCOCC4)cc31)N=C[C@@H]1CCCN1C2=O [Compound 11c, 7-Methoxy-8-{5-[2-[(4-(benzyloxy)phenyl)-6-morpholino]benzimidazol-1-yl]pentyl}oxy-(11aS)-1,2,3,11a-tetrahydro-5H-pyrrolo[2,1-c][1,4]benzodiazepin-5-one] | 2.9 °C | 3.2 °C | −4.24 | −5.83 | −5.00 | GI50 [3]: 603 nM; GI50 [4]: 1950 nM; GI50 [5]: 2290 nM; GI50 [6]: 2690 nM; GI50 [7]: 1550 nM; GI50 [8]: 2190 nM; GI50 [9]: 759 nM; GI50 [10]: 2190 nM; GI50 [11]: 1550 nM
COC(=O)c1ccc2nc(-c3cn(C)c4ccccc34)n(CCCCOc3cc4c(cc3OC)C(=O)N3CCC[C@H]3C=N4)c2c1 [Compound 14, Methyl-1-[(4-(11aS)-7-methoxy-1,2,3,11a-tetrahydro-5H-pyrrolo[2,1-c][1,4]benzodiazepin-5-one-8-yl)oxybutyl]-2-(1-methyl-3-indolyl)benzimidazol-6-carboxylate] | 1.5 °C | 2.0 °C | −4.92 | −6.19 | −5.65 | Log10 GI50 [3]: −6.88 mol/L; Log10 GI50 [4]: −6.08 mol/L; Log10 GI50 [5]: −6.04 mol/L; Log10 GI50 [6]: −6.00 mol/L; Log10 GI50 [7]: −6.27 mol/L; Log10 GI50 [8]: −6.04 mol/L; Log10 GI50 [9]: −6.10 mol/L; Log10 GI50 [10]: −6.62 mol/L; Log10 GI50 [11]: −6.14 mol/L
COc1cc2c(cc1O)N=CC1CCCN1C2=O (stereo not drawn) [DC-81, reference compound] | 0.3 °C | 0.7 °C | – | – | – | –
COc1cc2c(cc1OCCCCCn1c(-c3ccccn3)nc3ccccc31)N=C[C@@H]1CCCN1C2=O [Compound 11b, 7-Methoxy-8-{5-[2-(2-pyridyl)-1H-benzimidazol-1-yl]pentyl}oxy-(11aS)-1,2,3,11a-tetrahydro-5H-pyrrolo[2,1-c][1,4]benzodiazepin-5-one] | 1.0 °C | 1.2 °C | – | – | – | –
CCOC(=O)c1ccc2nc(-c3ccc(OCc4ccccc4)cc3)n(CCCCCOc3cc4c(cc3OC)C(=O)N3CCC[C@H]3C=N4)c2c1 [Compound 11d, Ethyl-2-[4-(benzyloxy)phenyl]-[(5-(11aS)-7-methoxy-1,2,3,11a-tetrahy-dro-5H-pyrrolo[2,1-c][1,4]benzodiazepin-5-one-8-yl)oxypentyl]-2-benzimidazol-6-carboxylate] | 2.0 °C | 3.0 °C | – | – | – | –
COc1cc2c(cc1OCCCn1c(-c3cccn3C)nc3ccccc31)N=C[C@@H]1CCCN1C2=O [Compound 8g, 7-Methoxy-8-{3-[2-(1-Methyl-2-pyrrolyl)-1H-benzimidazol-1,4]propyl}-oxy-(11aS)-1,2,3,11a-tetrahydro-5H-pyrrolo[2,1-c][1,4]benzodiazepin-5-one] | 2.0 °C | 3.1 °C | – | – | – | –
COc1cc2c(cc1OCCCCn1c(-c3ccco3)nc3ccccc31)N=C[C@@H]1CCCN1C2=O [Compound 8b, 7-Methoxy-8-{4-[2-(2-furyl)-1H-benzimidazol-1-yl]butyl}oxy-(11aS)-1,2,3,11a-tetrahydro-5H-pyrrolo[2,1-c][1,4]benzodiazepin-5-one] | 0.1 °C | 1.0 °C | – | – | – | –
COc1cc2c(cc1OCCCn1c(-c3cccs3)nc3ccccc31)N=C[C@@H]1CCCN1C2=O [Compound 8d, 7-Methoxy-8-{3-[2-(2-thienyl)-1H-benzimidazol-1-yl]propyl}oxy-(11aS)-1,2,3,11a-tetrahydro-5H-pyrrolo[2,1-c][1,4]benzodiazepin-5-one] | 3.9 °C | 5.1 °C | – | – | – | –
